PubChem BioAssay (NCI)
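Exposure lasted 48 hours, with cells grown in 96-well plates and compounds tested at five concentrations. GI50 = concentration required for 50% inhibition of growth. TGI: concentration producing complete growth inhibition.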

Experiments:
Assay in all cases: growth of human tumour cells (NCI), 48 h
SK-OV-3 ovarian = tested on: SK-OV-3 ovarian
K-562 leukemia = tested on: K-562 leukemia
OVCAR-3 ovarian = tested on: OVCAR-3 ovarian
MDA-MB-231 breast = tested on: MDA-MB-231 breast
SK-MEL-2 melanoma = tested on: SK-MEL-2 melanoma
CAKI-1 renal = tested on: CAKI-1 renal
MCF7 breast = tested on: MCF7 breast
MOLT-4 leukemia = tested on: MOLT-4 leukemia
MALME-3M melanoma = tested on: MALME-3M melanoma
IGROV1 ovarian = tested on: IGROV1 ovarian

Structure (SMILES) | GI50 (SK-OV-3 ovarian) [µM] | TGI (SK-OV-3 ovarian) [µM] | GI50 (K-562 leukemia) [µM] | TGI (K-562 leukemia) [µM] | GI50 (OVCAR-3 ovarian) [µM] | TGI (OVCAR-3 ovarian) [µM] | GI50 (MDA-MB-231 breast) [µM] | TGI (MDA-MB-231 breast) [µM] | GI50 (SK-MEL-2 melanoma) [µM] | TGI (SK-MEL-2 melanoma) [µM] | GI50 (CAKI-1 renal) [µM] | TGI (CAKI-1 renal) [µM] | GI50 (MCF7 breast) [µM] | TGI (MCF7 breast) [µM] | GI50 (MOLT-4 leukemia) [µM] | TGI (MOLT-4 leukemia) [µM] | GI50 (MALME-3M melanoma) [µM] | TGI (MALME-3M melanoma) [µM] | GI50 (IGROV1 ovarian) [µM] | TGI (IGROV1 ovarian) [µM]
O=[N+]([O-])/C=C/c1ccc([N+](=O)[O-])cc1 | 4.15 | 14.4 | 2.4 | 12.4 | 1.84 | 3.28 | 2.71 | 8.73 | 14.3 | 28.1 | 4.16 | 21.1 | 1.84 | 5.29 | 5.81 | 62.5 | 4.23 | 15.1 | 2.06 | 5.29
COc1ccc(-c2ccccc2)cc1-c1c(Nc2cc(Cl)cc(Cl)c2O)c(=O)c1=O | 1.28 | 4.25 | 1.59 | > 50 | 1.28 | 3.88 | 1.2 | 3.17 | 1.77 | > 50 | 1.33 | 4.83 | 1.3 | > 50 | 1.78 | > 50 | 1.19 | 3.5 | 1.76 | > 50
COc1cc(/C=C2\C(=O)Nc3ccccc32)cc(OC)c1OC | 26.1 | > 100 | 4.48 | > 100 | 25.4 | > 100 | 11.4 | 78.1 | 17.5 | 82.6 | 18.9 | > 100 | 19.9 | > 100 | 12 | 71.3 | 67 | > 100 | 20 | > 100
O=C(NC1(C(=O)O)CC1c1ccccc1)c1ccccc1 (stereo not given) | – | > 100 | – | > 100 | – | > 100 | – | > 100 | – | > 100 | – | > 100 | – | > 100 | – | > 100 | – | > 100 | – | > 100
CN(C)S(=O)(=O)c1ccc(Nc2ccc(O)c3c2C(=O)c2c([N+](=O)[O-])ccc(O)c2C3=O)cc1 | – | > 100 | – | > 100 | – | > 100 | – | > 100 | – | > 100 | – | > 100 | – | > 100 | – | > 100 | – | > 100 | – | > 100
CCC(=O)c1ccc2c(c1)N(CCCN1CCN(CCO)CC1)c1ccccc1S2 | 16.8 | 31.6 | 3.24 | 9.83 | 15.6 | 29.8 | 13.1 | 27.4 | 17.7 | 33.4 | 13.4 | 27.5 | 12.4 | 26.9 | 11 | 26.8 | 8.85 | 26.1 | 12.4 | 29.1
CCN1CCC(CC(=O)Nc2n[nH]c3nc(-c4cccs4)c(Br)cc23)CC1 | 9.24 | > 25 | 7.61 | > 19.2 | 10.4 | > 25 | 14.7 | > 25 | 6.24 | 11.4 | 4.29 | > 25 | 6.29 | 18.5 | 9.07 | 24.5 | 6.42 | 13.4 | 12.8 | > 25
COC(=O)[C@@H]1CCCN1C(=O)[C@H]1CCCN1C(=O)[C@@H](Cc1c[nH]c2ccccc12)NC(=S)Nc1cc(C(F)(F)F)cc(C(F)(F)F)c1 | 6.56 | 18.9 | 3.73 | 12.2 | 2.48 | 5.71 | 2.34 | 5.6 | 2.14 | 3.98 | 2.75 | 8.99 | 2.11 | 5.37 | 2.88 | 7.98 | 2.65 | 7.24 | 2.59 | 6.73
NC(=O)NCCSC1CCCCC1O (stereo not given) | – | > 100 | – | > 100 | – | > 100 | – | > 100 | – | > 100 | – | > 100 | – | > 100 | – | 78 | – | > 100 | – | > 100
Cc1cc(N=C2C=C(Nc3cc(C)on3)C(=O)c3ccccc32)no1 | – | > 100 | – | > 100 | – | > 100 | – | 28.7 | – | 72.5 | – | > 100 | – | 63 | – | > 100 | – | 53 | – | > 78.1
CCOC(=O)C1=C(c2ccccc2)N(c2ccc(OC)cc2)[C@]2(C#N)C(O)=C(Cl)C(Cl)=C(O)[C@]12C#N | 23.4 | 62.7 | 17.6 | 34.6 | 22.7 | 53.2 | 20.1 | 44.3 | 32.4 | > 100 | 27.9 | 80.1 | 18.7 | 36.1 | 21.9 | 56.9 | 18.7 | 42.6 | 21.7 | 48.6
O=[N+]([O-])c1cccc(-c2cc(-c3cc(Br)ccc3O)[nH]n2)c1 | 2.37 | 7.15 | 1.66 | 4.57 | 2.1 | 5.8 | 2.49 | 9.87 | 1.99 | 6.53 | 1.81 | 5.17 | 1.42 | 7.05 | 1.72 | 4.68 | 2.21 | 5.52 | 2.27 | 7.06
